From patent EP0290169A2, “Diamineplatinum complexes with phosphonocarboxylate and substituted phosphonocarboxylate ligands as antitumor agents” (ENGELHARD CORPORATION, priority 1987, dated 1988)
Where “and” joins values, the source holds several entries; their conditions need not be identical. Equal entries are not always repeated.

Legend:
[1] = tested on: Sarcoma 180 ascites; assay: S180a screening (Sarcoma 180 ascites tumor model), increase in life span; type: in vivo, CFW mice; conditions: for Surv.: survivors on day of evaluation
Description: CFW mice, averaging 20 g, are innoculated on day zero with 0.2 mL of a freshly prepared saline suspension (0.15 M NaCI) containing 1 × 10^7 tumor cells/mL, or a total of 2 x 10^6 cells. On day I, the mice are injected with the test compound in the selected medium (usually water). Six mice are used per test dose, with six doses normally being run.
Also, on day one, two types of controls (6 mice/set are employed: (1) Normal (1 set): 0.5 mL of the solvent medium used for the test compound, and (2) Positive control (1 set): cis-[Pt(NH3)2Cl2] in saline at 8 mg/kg.
The effectiveness of a compound is measured in terms of the increase in life span (ILS) of the test animals relative to the controls calculated from the day of tumor inoculation (day zero). The day of evaluation is arbitrarily taken as that day corresponding to twice the mean life-span of the normal controls. This sets a practical upper limit of 100% on the ILS attainable. For calculation purposes, survivors on the day of evaluation are considered to have died on that day. The % ILS is formulated as: [formula]
ILS values above 50% represent activity. The positive controls must have an ILS of ≧ 50% for the test to be valid.

[2] = tested on: L1210 leukemia; assay: L1210 screening (L1210 leukemia tumor model), increase in life span; type: in vivo, Female CDF1 mice
Description: Female CDF1 mice (16-22 g) are injected with a suspension of 1 x 10^6 tumor cells in 0.5 mL of 0.15 M saline on day zero. On day one, the mice receive the test compound in 0.5 mL of the chosen medium (usually water). Six mice were used for each test dose, with six doses normally being run. Normal controls (six mice) receive tumor on day zero and 0.5 mL of the test medium on day one. Positive controls (six mice) receive tumor on day zero and 8 mg/kg cisplatin in 0.5 mL of 0.15 M saline on day one. All compound doses are adjusted for the actual average weight of the mice involved. Testing is terminated at three times the normal control mean life span. The percent increase in lifespan (ILS) is calculated as follows: %ILS = [(mean life span (test)/mean life span(control)-I]x100 A 25% ILS or greater indicates activity. The maximum possible ILS is 200%. The positive control must have an ILS of S 25% for the test to be considered valid.
The tumor line is maintained by transfer of 5 x 10^4- cells in 0.1 mL saline every seven days. DBA/2 (18-22 g) mice are employed for tumor transfers

[3] = Toxicity testing: BUN (kidney toxicity); type: in vivo, mice; conditions: for BUN: change vs. controls
Description: (§1) (PVA = 2-phosphonovalerate). Based on the screening results, initial dosing was established at approximately twice the peak active dose in the SI80 screen. […] WBC was measured by lysing the red blood cells with 3% acetic acid and counting the white cells using a haemocytometer.
(§2) Data obtained for Na[Pt(trans-R,R-dach)(PVA)] was taken at 240 mg/kg. […] Average cage weights for the test mice were also taken over the seven day test period.

[4] = Toxicity testing: WBC (myelosuppression); type: in vivo, mice; conditions: for WBC: change vs. controls
Description: as §1, §2

[5] = Toxicity testing: hematocrit and average cage weights; type: in vivo, mice; conditions: 240 mg/kg
Description: (PVA = 2-phosphonovalerate). Based on the screening results, initial dosing was established at approximately twice the peak active dose in the SI80 screen. Both a cisplatin control, also run at twice the peak active dose, and a negative control experiment, were run for comparative purposes. BUN was measured by using a kit manufactured by Harleco (No. 64667). WBC was measured by lysing the red blood cells with 3% acetic acid and counting the white cells using a haemocytometer.
Data obtained for Na[Pt(trans-R,R-dach)(PVA)] was taken at 240 mg/kg. […] Myelosuppresion however, was apparent. The WBC depression for this compound was 63% relative to controls. […] Average cage weights for the test mice were also taken over the seven day test period. The mice lost an average of 5.9 g (27.3%) of body weight over this time.

[6] = dose 5.00 mg/kg on day 1, vehicle water
[7] = dose 10.00 mg/kg on day 1, vehicle water
[8] = dose 20.00 mg/kg on day 1, vehicle water
[9] = dose 40.00 mg/kg on day 1, vehicle water
[10] = dose 80.00 mg/kg on day 1, vehicle water
[11] = dose 160.00 mg/kg on day 1, vehicle water
[12] = dose 10.00 mg/kg on day 1, vehicle water, survivors
[13] = dose 20.00 mg/kg on day 1, vehicle water, survivors
[14] = dose 40.00 mg/kg on day 1, vehicle water, survivors
[15] = dose 80.00 mg/kg on day 1, vehicle water, survivors
[16] = dose 160.00 mg/kg on day 1, vehicle water, survivors
[17] = dose 320.00 mg/kg on day 1, vehicle water
[18] = dose 320.00 mg/kg on day 1, vehicle water, survivors

For “cis-[Pt(NH3)2Cl2] [Cisplatin, reference compound]”, the “POS. CONT. %ILS” value ([1]; positive control of the same test: cis-[Pt(NH3)2Cl2] in saline at 8 mg/kg on day 1, listed as POS. CONT., 8 mg/kg) was 89% and 85% and 70% and 55% and 94% and 74% and 86% and 68%, the “POS. CONT. Surv.” value ([1]; positive control of the same test: cis-[Pt(NH3)2Cl2] in saline at 8 mg/kg on day 1, survivors, listed as POS. CONT., 8 mg/kg) was 4/ 6 and 3/ 6 and 2/ 6 and 1/ 6 and the “POS. CONT. Surv.” value ([2]; positive control of the same test: 8 mg/kg cisplatin in 0.15 M saline on day 1, survivors, listed as POS. CONT.) was 0/ 6 and 1/ 6 and 3/ 6 and 2/ 6. The BUN ([3]; dose 15 mg/kg) was “+98%” and the WBC ([4]; dose 15 mg/kg) was -7%.
With `CC(N)CN.CCC1C(=O)[O][Pt][O]P1(=O)[O-].[Na+]` (mixture of isomers) [Ex 8, Na[Pt(pn)(2-phosphonobutyrate)]] the “%ILS” value [1, 6] was 4%, the Surv. [1, 6] was 0/ 6 and the “%ILS” value [1, 7] was 19%. For the same compound, the Surv. [1, 7] was 0/ 6, the “%ILS” value [1, 8] was 4% and the Surv. [1, 8] was 0/ 6. The “%ILS” value [1, 9] was 46%, the Surv. [1, 9] was 0/ 6 and the “%ILS” value [1, 10] was 38%. The Surv. [1, 10] was 0/ 6, the “%ILS” value [1, 11] was 95% and the Surv. [1, 11] was 4/ 6. The “%ILS” value [2, 7] was -6%, the Surv. [2, 12] was 0/ 6 and the “%ILS” value [2, 8] was -9%. For the same compound, the Surv. [2, 13] was 0/ 6, the “%ILS” value [2, 9] was 0% and the Surv. [2, 14] was 0/ 6. The “%ILS” value [2, 10] was -2%, the Surv. [2, 15] was 0/ 6 and the “%ILS” value [2, 11] was 16%. For the same compound, the Surv. [2, 16] was 0/ 6, the “%ILS” value [2, 17] was -44% and the Surv. [2, 18] was 0/ 6.
For `CCCC1C(=O)[O][Pt][O]P1(=O)[O-].NC1CCCCC1N.[Na+]` (mixture of isomers) [Ex 18, Na[Pt(trans-R,R-dach)(2-phosphonovaierate)]], the “%ILS” value [1, 9] was 77%, the Surv. [1, 9] was 1/ 6 and the “%ILS” value [1, 10] was 92%. The Surv. [1, 10] was 5/ 6, the “%ILS” value [1, 11] was 44% and the Surv. [1, 11] was 1/ 6. For the same compound, the “%ILS” value [2, 7] was 36%, the Surv. [2, 12] was 0/ 6 and the “%ILS” value [2, 8] was 25%. For the same compound, the Surv. [2, 13] was 0/ 6, the “%ILS” value [2, 9] was 33% and the Surv. [2, 14] was 0/ 6. For the same compound, the “%ILS” value [2, 10] was 33%, the Surv. [2, 15] was 0/ 6 and the “%ILS” value [2, 11] was 109%. The Surv. [2, 16] was 0/ 6, the “%ILS” value [2, 17] was 24% and the Surv. [2, 18] was 1/ 6. For the same compound, the “BUN decrease vs. controls” value ([3]; 240 mg/kg) was 4%, the “average BUN level” value ([3]; 240 mg/kg, test mice) was 34.7 mg/dL and the BUN ([3]; dose 240 mg/kg) was -4%. For the same compound, the kidney toxicity ([3]; judged from BUN elevation) was “not kidney toxic at this dose”, the “WBC depression relative to controls” value ([4]; 240 mg/kg) was 63% and the WBC ([4]; dose 240 mg/kg) was -63%. For the same compound, the “hematocrits (ratio of packed red blood cells to volume of whole blood)” value [5] was “low hematocrits”.
In the case of “Na[Pt(trans-R, R-dach)(2-phosphono-1,7-heptanedicarboxylate)] [Ex 23]”, the “%ILS” value [1, 7] is reported as 20%, the Surv. [1, 7] is reported as 0/ 6 and the “%ILS” value [1, 8] is reported as 31%. For the same compound, the Surv. [1, 8] was 0/ 6, the “%ILS” value [1, 9] was 45% and the Surv. [1, 9] was 2/ 6. The “%ILS” value [1, 10] was 86%, the Surv. [1, 10] was 4/ 6 and the “%ILS” value [1, 11] was 34%. For the same compound, the Surv. [1, 11] was 4/ 6, the “%ILS” value [1, 17] was -37% and the Surv. [1, 17] was 1/ 6. The “%ILS” value [2, 7] was 59%, the Surv. [2, 12] was 0/ 6 and the “%ILS” value [2, 8] was 67%. For the same compound, the Surv. [2, 13] was 0/ 6, the “%ILS” value [2, 9] was 88% and the Surv. [2, 14] was 0/ 6. The “%ILS” value [2, 10] was 133%, the Surv. [2, 15] was 3/ 6 and the “%ILS” value [2, 11] was 161%. For the same compound, the Surv. [2, 16] was 3/ 6, the “%ILS” value [2, 17] was -32% and the Surv. [2, 18] was 0/ 6.
With `CCC(C)(C(=O)[O-])P(=O)([O-])[O-].N[C@@H]1CCCC[C@H]1N.[Na+].[Pt+2]` (relative stereo) [Ex 22, Na[Pt(trans-R,R-dach)(2-methyl-2-phosphonobutyrate)]] the “%ILS” value [1, 7] was 28%, the Surv. [1, 7] was 1/ 6 and the “%ILS” value [1, 8] was 20%. The Surv. [1, 8] was 0/ 6, the “%ILS” value [1, 9] was 82% and the Surv. [1, 9] was 4/ 6. The “%ILS” value [1, 10] was 100%, the Surv. [1, 10] was 6/ 6 and the “%ILS” value [1, 11] was 86%. The Surv. [1, 11] was 2/ 6, the “%ILS” value [1, 17] was -78% and the Surv. [1, 17] was 0/ 6. The “%ILS” value [2, 7] was 45%, the Surv. [2, 12] was 0/ 6 and the “%ILS” value [2, 8] was 35%. For the same compound, the Surv. [2, 13] was 0/ 6, the “%ILS” value [2, 9] was 70% and the Surv. [2, 14] was 1/ 6. The “%ILS” value [2, 10] was 94%, the Surv. [2, 15] was 1/ 6 and the “%ILS” value [2, 11] was 114%. For the same compound, the Surv. [2, 16] was 3/ 6, the “%ILS” value [2, 17] was -39% and the Surv. [2, 18] was 0/ 6.
